Literature values in patent US9809589B2, “Crystal form of compound used as mineralocorticoid receptor antagonist and preparation method therefor” (KBP BIOSCIENCES CO., LTD., priority 2012, dated 2017).

What was measured:
androgen receptor = biological target: T1, androgen receptor (Homo sapiens, UniProt P10275); conditions: relative to mineralocorticoid receptor; WO2012022121; cited from earlier work
T1 sequence (P10275 1-920): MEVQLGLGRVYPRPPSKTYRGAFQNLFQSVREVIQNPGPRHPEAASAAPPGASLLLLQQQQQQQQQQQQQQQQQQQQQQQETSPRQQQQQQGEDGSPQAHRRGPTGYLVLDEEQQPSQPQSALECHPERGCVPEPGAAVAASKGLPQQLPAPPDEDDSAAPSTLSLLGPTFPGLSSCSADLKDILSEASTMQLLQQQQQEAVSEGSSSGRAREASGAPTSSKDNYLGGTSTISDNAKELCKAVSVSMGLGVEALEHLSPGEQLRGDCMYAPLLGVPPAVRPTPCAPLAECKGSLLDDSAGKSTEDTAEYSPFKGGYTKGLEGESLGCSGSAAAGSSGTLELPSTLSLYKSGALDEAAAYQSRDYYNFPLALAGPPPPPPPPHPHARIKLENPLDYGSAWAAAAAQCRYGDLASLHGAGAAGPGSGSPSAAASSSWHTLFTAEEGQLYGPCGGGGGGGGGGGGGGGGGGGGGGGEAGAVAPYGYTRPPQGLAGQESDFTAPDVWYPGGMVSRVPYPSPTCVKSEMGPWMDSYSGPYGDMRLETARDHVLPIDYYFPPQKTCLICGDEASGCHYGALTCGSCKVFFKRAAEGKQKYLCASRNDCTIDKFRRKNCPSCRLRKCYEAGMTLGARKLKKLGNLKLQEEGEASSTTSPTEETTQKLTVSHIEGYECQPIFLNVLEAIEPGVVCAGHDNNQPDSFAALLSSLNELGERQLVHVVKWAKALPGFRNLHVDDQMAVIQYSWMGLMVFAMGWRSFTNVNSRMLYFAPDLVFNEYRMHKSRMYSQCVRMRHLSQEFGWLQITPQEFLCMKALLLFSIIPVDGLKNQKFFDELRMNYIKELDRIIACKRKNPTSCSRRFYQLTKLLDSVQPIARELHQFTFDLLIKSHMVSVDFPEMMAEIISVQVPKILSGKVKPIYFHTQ

[1] = biological target: T2, mineralocorticoid receptor (Homo sapiens, UniProt P08235); conditions: as disclosed in WO2012022121; cited from earlier work
T2 sequence (P08235 1-984): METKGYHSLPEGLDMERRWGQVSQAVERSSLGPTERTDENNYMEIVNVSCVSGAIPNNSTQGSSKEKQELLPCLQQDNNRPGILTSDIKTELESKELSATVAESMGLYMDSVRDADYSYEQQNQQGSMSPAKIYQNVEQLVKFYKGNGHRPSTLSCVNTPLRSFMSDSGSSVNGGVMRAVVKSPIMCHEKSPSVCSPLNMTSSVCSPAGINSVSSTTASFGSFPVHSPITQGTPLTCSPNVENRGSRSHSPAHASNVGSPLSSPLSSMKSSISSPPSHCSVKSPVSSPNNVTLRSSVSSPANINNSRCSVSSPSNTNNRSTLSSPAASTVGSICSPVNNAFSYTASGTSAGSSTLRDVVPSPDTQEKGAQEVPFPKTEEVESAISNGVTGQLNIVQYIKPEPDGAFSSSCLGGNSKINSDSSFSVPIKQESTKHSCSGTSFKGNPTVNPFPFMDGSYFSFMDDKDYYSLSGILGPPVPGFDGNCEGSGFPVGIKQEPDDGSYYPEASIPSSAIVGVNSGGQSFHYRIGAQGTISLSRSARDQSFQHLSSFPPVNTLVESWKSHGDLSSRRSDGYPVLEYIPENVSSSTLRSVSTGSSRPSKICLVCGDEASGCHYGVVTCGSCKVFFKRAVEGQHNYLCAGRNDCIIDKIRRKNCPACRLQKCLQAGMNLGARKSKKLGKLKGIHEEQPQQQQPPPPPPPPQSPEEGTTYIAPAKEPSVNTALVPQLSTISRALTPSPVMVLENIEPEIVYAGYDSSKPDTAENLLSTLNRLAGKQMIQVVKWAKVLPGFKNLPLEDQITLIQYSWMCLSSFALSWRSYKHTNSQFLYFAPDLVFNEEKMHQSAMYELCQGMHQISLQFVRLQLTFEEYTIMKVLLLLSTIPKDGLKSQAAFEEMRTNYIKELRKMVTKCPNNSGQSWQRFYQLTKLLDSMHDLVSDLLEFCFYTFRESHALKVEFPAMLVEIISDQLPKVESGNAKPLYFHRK

glucocorticoid receptor = biological target: T3, glucocorticoid receptor (Homo sapiens, UniProt P04150); conditions: relative to mineralocorticoid receptor; WO2012022121; cited from earlier work
T3 sequence (P04150 1-777): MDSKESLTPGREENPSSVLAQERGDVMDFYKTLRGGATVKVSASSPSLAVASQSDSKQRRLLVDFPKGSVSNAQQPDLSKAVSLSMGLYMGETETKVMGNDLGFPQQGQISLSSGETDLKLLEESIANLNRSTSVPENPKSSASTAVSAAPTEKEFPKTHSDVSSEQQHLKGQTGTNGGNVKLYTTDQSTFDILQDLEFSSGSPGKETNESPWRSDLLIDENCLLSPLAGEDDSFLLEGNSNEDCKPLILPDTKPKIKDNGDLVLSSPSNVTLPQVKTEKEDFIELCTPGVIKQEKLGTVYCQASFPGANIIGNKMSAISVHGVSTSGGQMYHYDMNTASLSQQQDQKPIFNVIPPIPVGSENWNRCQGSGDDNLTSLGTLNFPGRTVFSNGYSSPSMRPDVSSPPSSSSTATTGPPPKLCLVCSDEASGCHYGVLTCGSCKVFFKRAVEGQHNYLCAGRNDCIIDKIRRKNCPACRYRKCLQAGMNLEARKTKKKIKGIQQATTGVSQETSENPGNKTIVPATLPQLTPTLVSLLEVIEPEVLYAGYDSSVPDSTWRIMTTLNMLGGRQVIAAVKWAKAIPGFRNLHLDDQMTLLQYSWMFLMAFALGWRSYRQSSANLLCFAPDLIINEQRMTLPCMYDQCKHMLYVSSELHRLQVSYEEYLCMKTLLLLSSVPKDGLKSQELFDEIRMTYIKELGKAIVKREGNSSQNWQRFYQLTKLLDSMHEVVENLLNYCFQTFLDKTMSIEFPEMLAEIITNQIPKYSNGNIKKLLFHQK

N#Cc1ccc(N2N=C3c4ccc(C(=O)N5CCC(O)CC5)nc4CC[C@@H]3[C@@H]2C2CCCC2)cc1Cl [compound represented by Formula (1), 2-chloro-4-[(3S,3aR)-3-cyclopentyl-7-(4-hydroxypiperidin-1-carbonyl)-3,3a,4,5-tetrahydro-2H-pyrazolo[3,4-f]quinolin-2-yl]benzonitrile]
Affinity to the androgen receptor (androgen receptor): lower affinity
Binding to the mineralocorticoid receptor [1]: selectively bind to the mineralocorticoid receptor
Affinity to the glucocorticoid receptor (glucocorticoid receptor): lower affinity
